Biological target: T1, BRD9-GFP (Homo sapiens, UniProt Q9H8M2)
T1 construct: CHYSEL (2A cis-acting hydrolase element) remnant after GFP; mCherry is split off as a separate protein (C); expressed in transfected cells; host or cells: HEK293A cells (Invitrogen R70507), lentiviral transduction with pLenti6-BRD9-GFP-CHYSEL-mCherry, blasticidin selection
T1 sequence (Q9H8M2 1-597): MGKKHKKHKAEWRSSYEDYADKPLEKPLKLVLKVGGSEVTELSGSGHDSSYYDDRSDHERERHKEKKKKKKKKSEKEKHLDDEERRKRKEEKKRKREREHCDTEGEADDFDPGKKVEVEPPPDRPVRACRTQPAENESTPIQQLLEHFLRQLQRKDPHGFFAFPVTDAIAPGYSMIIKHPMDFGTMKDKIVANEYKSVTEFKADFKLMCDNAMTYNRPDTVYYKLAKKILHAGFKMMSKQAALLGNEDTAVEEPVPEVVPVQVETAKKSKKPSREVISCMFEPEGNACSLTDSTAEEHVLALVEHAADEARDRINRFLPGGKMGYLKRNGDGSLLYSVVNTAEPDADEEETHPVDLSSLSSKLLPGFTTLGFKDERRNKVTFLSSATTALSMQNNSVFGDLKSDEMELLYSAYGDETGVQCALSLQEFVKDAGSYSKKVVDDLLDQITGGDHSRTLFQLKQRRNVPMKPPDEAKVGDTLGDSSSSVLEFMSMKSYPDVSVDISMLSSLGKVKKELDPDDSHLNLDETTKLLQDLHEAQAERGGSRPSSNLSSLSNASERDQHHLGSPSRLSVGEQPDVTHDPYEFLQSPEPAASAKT
Assay: BRD9-GFP protein abundance flow cytometry assay in HEK293A cells
Type: cell-based
Conditions: HEK293A-BRD9-GFP-CHYSEL-mCherry cells; for BRD9 Deg Amax %: 24 h, % protein remaining at the concentration at which maximum degradation is seen; for DC50: 24 h at 37° C., 10-point 1:3 dilution, concentration at which 50% maximal degradation was observed
Summary of the method: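 HEK293A cells stably express bicistronic BRD9-GFP-CHYSEL-mCherry and received 24 h treatment at 37° C with a 10-point, 3-fold dilution series from […], in 0.1% DMSO and duplicate. Median GFP/mCherry ratio of 5,000 single cells by flow cytometry, normalized to mCherry-only cells (0%) and DMSO (100%), gave DC50 and Amax (% protein remaining).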

SMILES	BRD9 Deg Amax %	DC50
CCCCCCn1cc(-c2cc(OC)c(CCN3CCC(OC4CCN(C(=O)c5ccc(OC)c(N6CCC(=O)NC6=O)c5)CC4)CC3)c(OC)c2)c2ccncc2c1=O [Compound E4, 1-(5-(4-((1-(4-(2-hexyl-1-oxo-1,2-dihydro-2,7-naphthyridin-4-yl)-2,6-dimethoxy-phenethyl)piperidin-4-yl)oxy)piperidine-1-carbonyl)-2-meth-oxyphenyl)dihydro-pyrimidine-2,4(1H,3H)-dione]	19.61%	34 nM
CCCn1cc(-c2ccc(CN3CC[C@@H](OC4CCN(C(=O)c5cccc(N6CCC(=O)NC6=O)c5)CC4)[C@H](F)C3)cc2)c(C)c(C)c1=O [Compound E5, 1-(3-(4-(((3R,4R)-1-(4-(4,5-dimethyl-6-oxo-1-propyl-1,6-dihydropyridin-3-yl)benzyl)-3-fluoropiperidin-4-yl)oxy)piperidine-1-carbonyl)phenyl)dihydropyrimidine-2,4(1H,3H)-dione]	14.46%	5 nM
CCCn1cc(-c2cc(OC)c(CCN3CC[C@@H](OC4CCN(CCn5cccc(CN6CCC(=O)NC6=O)c5=O)CC4)[C@H](F)C3)c(OC)c2)c(C)c(C)c1=O [Compound E7, 1-((1-(2-(4-(((3R,4R)-1-(4-(4,5-Dimethyl-6-oxo-1-propyl-1,6-dihydropyridin-3-yl)-2,6-dimethoxyphenethyl)-3-fluoropiperidin-4-yl)oxy)piperidin-1-yl)ethyl)-2-oxo-1,2-dihydropyridin-3-yl)methyl)dihydropyrimidine-2,4(1H,3H)-dione]	18.57%	4 nM
CCCn1cc(-c2cc(F)c(CCN3CCC(OC4CCN(C(=O)c5ccc(OC)c(N6CCC(=O)NC6=O)c5)CC4)CC3)c(F)c2)c(C)c(C)c1=O [Compound E12, 1-(5-(4-((1-(4-(4,5-dimethyl-6-oxo-1-propyl-1,6-dihydropyridin-3-yl)-2,6-difluorophenethyl)piperidin-4-yl)oxy)piperidine-1-carbonyl)-2 methoxyphenyl)dihydropyrimidine-2,4(1H,3H)-dione]	33.47%	30 nM
CCCCn1cc(-c2ccc(CN3CCC(OC4CCN(C(=O)c5ccc(OC)c(N6CCC(=O)NC6=O)c5)CC4)CC3)cc2)c2ccncc2c1=O [Compound E13, 1-(5-(4-((1-(4-(2-butyl-1-oxo-1,2-dihydro-2,7-naphthyridin-4-yl)benzyl)piperidin-4-yl)oxy)piperidine-1-carbonyl)-2-meth-oxyphenyl)dihydro-pyrimidine-2,4(1H,3H)-dione]	13.06%	2 nM
CCCCCCn1cc(-c2cc(OC)c(CCN3CCC(OC4CCN(C(=O)c5ccc(F)c(N6CCC(=O)NC6=O)c5)CC4)CC3)c(OC)c2)c2ccncc2c1=O [Compound E15, 1-(2-fluoro-5-(4-((1-(4-(2-hexyl-1-oxo-1,2-dihydro-2,7-naphthyridin-4-yl)-2,6-dimethoxyphenethyl)piperidin-4-yl)oxy)piperidine-1-carbonyl)phenyl)dihydropyrimidine-2,4(1H,3H)-dione]	19.85%	17 nM
Cn1cc(-c2cc(F)c(CN3CCC(OC4CCN(CCn5cccc(CN6CCC(=O)NC6=O)c5=O)CC4)CC3)c(F)c2)c2ccncc2c1=O [Compound E18, 1-((1-(2-(4-((1-(2,6-difluoro-4-(2-methyl-1-oxo-1,2-dihydro-2,7-naphthyridin-4-yl)benzyl)piperidin-4-yl)oxy)piperidin-1-yl)ethyl)-2-oxo-1,2-dihydropyridin-3-yl)methyl)dihydro-pyrimidine-2,4(1H,3H)-dione]	16.66%	19 nM
CCCCn1cc(-c2ccc(O[C@H]3CCN(CC4CCN(CCOc5ccc(C)c(N6CCC(=O)NC6=O)c5)CC4)C[C@@H]3F)c(OC)c2)c2ccncc2c1=O [Compound E22, 1-(5-(2-(4-(((3S,4S)-4-(4-(2-butyl-1-oxo-1,2-dihydro-2,7-naphthyridin-4-yl)-2-methoxyphenoxy)-3-fluoropiperidin-1-yl)methyl)piperidin-1-yl)ethoxy)-2-methylphenyl)dihydropyrimidine-2,4(1H,3H)-dione]	39.25%	34 nM
CCCn1cc(-c2cc(OC)c(CCN3CCC(OC4CCN(CCn5cccc(CN6CCC(=O)NC6=O)c5=O)CC4)CC3)c(OC)c2)c(C)c(C)c1=O [Compound E23, 1-((1-(2-(4-((1-(4-(4,5-dimethyl-6-oxo-1-propyl-1,6-dihydropyridin-3-yl)-2,6-dimethoxyphenethyl)piperidin-4-yl)oxy)piperidin-1-yl)ethyl)-2-oxo-1,2-dihydropyridin-3-yl)methyl)dihydropyrimidine-2,4(1H,3H)-dione]	14.27%	11 nM
COc1cc(-c2cn(C)c(=O)c3cnccc23)cc(F)c1CN1CCC(OC2CCN(CCn3cccc(CN4CCC(=O)NC4=O)c3=O)CC2)CC1 [Compound E24, 1-((1-(2-(4-((1-(2-fluoro-6-methoxy-4-(2-methyl-1-oxo-1,2-dihydro-2,7-naphthyridin-4-yl)benzyl)piperidin-4-yl)oxy)piperidin-1-yl)ethyl)-2-oxo-1,2-dihydropyridin-3-yl)methyl)dihydropyrimidine-2,4(1H,3H)-dione]	17.08%	42 nM
Cn1cc(-c2cc(F)c(CCN3CCC(OC4CCN(CCn5cccc(CN6CCC(=O)NC6=O)c5=O)CC4)CC3)c(F)c2)c2ccncc2c1=O [Compound E27, 1-((1-(2-(4-((1-(2,6-difluoro-4-(2-methyl-1-oxo-1,2-dihydro-2,7-naphthyridin-4-yl)phenethyl)piperidin-4-yl)oxy)piperidin-1-yl)ethyl)-2-oxo-1,2-dihydropyridin-3-yl)methyl)dihydropyrimidine-2,4(1H,3H)-dione]	22.28%	33 nM

Other lines, results leading:

BRD9 Deg Amax %	DC50	SMILES
21.29%	9 nM	CCCCn1cc(-c2cc(F)c(OC3CCN(CCC4CCN(C(=O)c5ccc(OC)c(N6CCC(=O)NC6=O)c5)CC4)CC3)c(F)c2)c2ccncc2c1=O [Compound E6, 1-(5-(4-(2-(4-(4-(2-butyl-1-oxo-1,2-dihydro-2,7-naphthyridin-4-yl)-2,6-difluorophenoxy)piperidin-1-yl)ethyl)piperidine-1-carbonyl)-2-methoxyphenyl)dihydropyrimidine-2,4(1H,3H)-dione]
18.10%	1 nM	CCCCn1cc(-c2cc(F)c(O[C@@H]3CCN(CCC4CCN(C(=O)c5ccc(OC)c(N6CCC(=O)NC6=O)c5)CC4)C[C@H]3F)c(F)c2)c2ccncc2c1=O [Compound E14, 1-(5-(4-(2-((3R,4R)-4-(4-(2-butyl-1-oxo-1,2-dihydro-2,7-naphthyridin-4-yl)-2,6-difluorophenoxy)-3-fluoropiperidin-1-yl)ethyl)piperidine-1-carbonyl)-2-meth-oxyphenyl)dihydro-pyrimidine-2,4(1H,3H)-dione]
16.58%	1 nM	CCCCn1cc(-c2ccc(O[C@H]3CCN(CC4CCN(C(=O)c5ccc(OC)c(N6CCC(=O)NC6=O)c5)CC4)C[C@@H]3F)c(F)c2)c2ccncc2c1=O [Compound E16, 1-(5-(4-(((3S,4S)-4-(4-(2-butyl-1-oxo-1,2-dihydro-2,7-naphthyridin-4-yl)-2-fluorophenoxy)-3-fluoropiperidin-1-yl)methyl)piperidine-1-carbonyl)-2-meth-oxyphenyl)dihydro-pyrimidine-2,4(1H,3H)-dione]
18.79%	5 nM	CCCCn1cc(-c2ccc(O[C@@H]3CCN(CC4CCN(CCn5cccc(CN6CCC(=O)NC6=O)c5=O)CC4)C[C@H]3F)c(F)c2)c2ccncc2c1=O [Compound E17, 1-((1-(2-(4-(((3R,4R)-4-(4-(2-butyl-1-oxo-1,2-dihydro-2,7-naphthyridin-4-yl)-2-fluorophenoxy)-3-fluoropiperidin-1-yl)methyl)piperidin-1-yl)ethyl)-2-oxo-1,2-dihydropyridin-3-yl)methyl)dihydropyrimidine-2,4(1H,3H)-dione]
13.02%	1 nM	CCCCn1cc(-c2ccc(O[C@H]3CCN(CC4CCN(C(=O)COc5ccc(C)c(N6CCC(=O)NC6=O)c5)CC4)C[C@@H]3F)c(OC)c2)c2ccncc2c1=O [Compound E25, 1-(5-(2-(4-(((3S,4S)-4-(4-(2-Butyl-1-oxo-1,2-dihydro-2,7-naphthyridin-4-yl)-2-methoxyphenoxy)-3-fluoropiperidin-1-yl)methyl)piperidin-1-yl)-2-oxoethoxy)-2-methylphenyl)dihydropyrimidine-2,4(1H,3H)-dione]

— patent publication US20220315578A1, “BRD9 BIFUNCTIONAL DEGRADERS AND THEIR METHODS OF USE” (NOVARTIS AG, priority 2019, published 2022)
